Experimental data from US20230413822A1, “ORAL CANINE FEED AND METHODS FOR C[…] INFESTATIONS IN A CANINE” (In the Bowl Animal Health, Inc., priority 2021, published 2023).
Several values for one entry are separate records, joined by “and”; a condition that tells them apart may be missing. Equal entries are not always repeated.

Assays:
[1] = Plasma concentration of mivorilaner in dogs given an oral liquid formulation daily (Example 1); format: in vivo; conditions: individual canines, Day 37, 0.75 mg/kg/day oral, days 0-29, 0.75 mg/kg/day
Text: Methods: A pool of 14 dogs are to be preliminarily infested with ˜100 unfed adult C. felis in order to produce dogs that can suitably sustain a reliable infestation rate, defined as approximately 50% fleas being live at the end of a 48-hour period. The 12 dogs with the highest live flea counts are to be selected for inclusion in the study. The dogs are to be divided into a control group and a treatment group.
(§1) The dogs are to be housed individually during the study period and are to be fed a commercial dry dog food ration with ad libitum access to water.
Each dog in the treatment group is to receive by mouth a liquid formulation of isoxazoline. The dosage of 0.75 mg/kg is to be administered to the dogs on each of days 0-29.
Dogs in the control group are not to receive isoxazoline or any other tick control treatment. Each dog in the treatment group is to be offered its daily ration (dry food) and the individual doses of liquid formulation are to be administered after the individual dog has eaten at least 25% of its total daily ration. After receiving the dose of isoxazoline, the dogs are to be allowed to continue eating. This mimics incorporating the isoxazoline in feed. Each dog in the treatment group and the control group is to be experimentally infested with 50 adult ticks on test days 5, 12, 19, 28 and 35. Comb counts for live and moribund attached ticks are to be conducted on days 7, 14, 21, 30 and 37.

[2] = Plasma concentration of mivorilaner in dogs at various daily oral doses (Example 2); format: in vivo; conditions: average plasma
Text: Methods: A pool of 46 dogs are to be preliminarily infested with ˜50 unfed adult R. sanguineus ticks in order to produce dogs that can suitably sustain a reliable infestation rate, defined as approximately 25% of attached ticks being live at the end of a 48-hour period. The 40 dogs with the highest live attached tick counts are to be selected for inclusion in the study. The dogs are to be randomly assigned to one of a control group and 4 treatment groups.
as §1
Each dog in a treatment group (test groups 2-5) is to receive by mouth a liquid formulation of isoxazoline.
Dogs in the control group are not to receive isoxazoline or any other tick control treatment. Each dog in the treatment group is to be offered its daily ration (dry food) and the individual doses of liquid formulation are to be administered after the individual dog has eaten at least 25% of its total daily ration. After receiving the dose of isoxazoline, the dogs are to be allowed to continue eating. Each dog in treatment groups 3-5 and the control group is to be experimentally infested with 50 adult ticks on test days −2, 5, 12, 19, 28, 35 and 42. Dogs in group 2 are to be infested with 50 adult ticks on test days 19, 28 and 35. Comb counts for live adult ticks are to be conducted on days 2, 7, 14, 21, 30, 37 and 44.
Sample results of the average plasma concentration of isoxazoline in a canine's blood at different dosage levels of mivorilaner are shown in TABLE 3 and FIG. 4.

Structure (SMILES): O=C(CNC(=O)c1sc(C2=NO[C@@](c3cc(Cl)c(F)c(Cl)c3)(C(F)(F)F)C2)c2c1CCC2)NCC(F)F [Mivorilaner, 3-[(5S)-5-(3,5-dichloro-4-fluorophenyl)-5-(trifluoromethyl)-4,5-dihydroisoxazol-3-yl]-N-[2-[(2,2-difluoroethyl)amino]-2-oxoethyl]-5,6-dihydro-4H-cyclopenta[c]thiophene-1-carboxamide]
- Mivorilaner Concentration [1]: 2070 ng/mL and 2410 ng/mL and 1880 ng/mL and 2010 ng/mL
- Mivorilaner Concentration ([2]; Group 2 (0.125 mg/kg/day) oral fed, 72 hours after initial dose): 135.83 ng/mL
- Mivorilaner Concentration ([2]; Group 2 (0.125 mg/kg/day) oral fed, 120 hours after initial dose): 212.63 ng/mL
- Mivorilaner Concentration ([2]; Group 2 (0.125 mg/kg/day) oral fed, 168 hours after initial dose): 243.63 ng/mL
- Mivorilaner Concentration ([2]; Group 2 (0.125 mg/kg/day) oral fed, 336 hours after initial dose): 383.75 ng/mL
- Mivorilaner Concentration ([2]; Group 2 (0.125 mg/kg/day) oral fed, 504 hours after initial dose): 404.13 ng/mL
- Mivorilaner Concentration ([2]; Group 2 (0.125 mg/kg/day) oral fed, 720 hours after initial dose): 419.50 ng/mL
- Mivorilaner Concentration ([2]; Group 2 (0.125 mg/kg/day) oral fed, 888 hours after initial dose): 447.50 ng/mL
- Mivorilaner Concentration ([2]; Group 2 (0.125 mg/kg/day) oral fed, 1056 hours after initial dose): 428.38 ng/mL
- Mivorilaner Concentration ([2]; Group 2 (0.125 mg/kg/day) oral fed, 1224 hours after initial dose): 485.50 ng/mL
- Mivorilaner Concentration ([2]; Group 2 (0.125 mg/kg/day) oral fed, 1440 hours after initial dose): 897.50 ng/mL
- Mivorilaner Concentration ([2]; Group 3 (0.25 mg/kg/day) oral fed, 72 hours after initial dose): 283.13 ng/mL
- Mivorilaner Concentration ([2]; Group 3 (0.25 mg/kg/day) oral fed, 120 hours after initial dose): 450.00 ng/mL
- Mivorilaner Concentration ([2]; Group 3 (0.25 mg/kg/day) oral fed, 168 hours after initial dose): 579.13 ng/mL
- Mivorilaner Concentration ([2]; Group 3 (0.25 mg/kg/day) oral fed, 336 hours after initial dose): 883.38 ng/mL
- Mivorilaner Concentration ([2]; Group 3 (0.25 mg/kg/day) oral fed, 504 hours after initial dose): 877.75 ng/mL
- Mivorilaner Concentration ([2]; Group 3 (0.25 mg/kg/day) oral fed, 720 hours after initial dose): 1015.63 ng/mL
- Mivorilaner Concentration ([2]; Group 3 (0.25 mg/kg/day) oral fed, 888 hours after initial dose): 1003.88 ng/mL
- Mivorilaner Concentration ([2]; Group 3 (0.25 mg/kg/day) oral fed, 1056 hours after initial dose): 945.13 ng/mL
- Mivorilaner Concentration ([2]; Group 3 (0.25 mg/kg/day) oral fed, 1224 hours after initial dose): 1040.88 ng/mL
- Mivorilaner Concentration ([2]; Group 3 (0.25 mg/kg/day) oral fed, 1440 hours after initial dose): 999.13 ng/mL
- Mivorilaner Concentration ([2]; Group 4 (0.5 mg/kg/day) oral fed, 72 hours after initial dose): 474.25 ng/mL
- Mivorilaner Concentration ([2]; Group 4 (0.5 mg/kg/day) oral fed, 120 hours after initial dose): 763.13 ng/mL
- Mivorilaner Concentration ([2]; Group 4 (0.5 mg/kg/day) oral fed, 168 hours after initial dose): 888.00 ng/mL
- Mivorilaner Concentration ([2]; Group 4 (0.5 mg/kg/day) oral fed, 336 hours after initial dose): 1457.88 ng/mL
- Mivorilaner Concentration ([2]; Group 4 (0.5 mg/kg/day) oral fed, 504 hours after initial dose): 1633.25 ng/mL
- Mivorilaner Concentration ([2]; Group 4 (0.5 mg/kg/day) oral fed, 720 hours after initial dose): 1873.75 ng/mL
- Mivorilaner Concentration ([2]; Group 4 (0.5 mg/kg/day) oral fed, 888 hours after initial dose): 1986.25 ng/mL
- Mivorilaner Concentration ([2]; Group 4 (0.5 mg/kg/day) oral fed, 1056 hours after initial dose): 2012.50 ng/mL
- Mivorilaner Concentration ([2]; Group 4 (0.5 mg/kg/day) oral fed, 1224 hours after initial dose): 2318.75 ng/mL
- Mivorilaner Concentration ([2]; Group 4 (0.5 mg/kg/day) oral fed, 1440 hours after initial dose): 2298.75 ng/mL
- Mivorilaner Concentration ([2]; Group 5 (1.0 mg/kg/day) oral fed, 72 hours after initial dose): 951.25 ng/mL
- Mivorilaner Concentration ([2]; Group 5 (1.0 mg/kg/day) oral fed, 120 hours after initial dose): 1510.00 ng/mL
- Mivorilaner Concentration ([2]; Group 5 (1.0 mg/kg/day) oral fed, 168 hours after initial dose): 1793.75 ng/mL
- Mivorilaner Concentration ([2]; Group 5 (1.0 mg/kg/day) oral fed, 336 hours after initial dose): 2691.25 ng/mL
- Mivorilaner Concentration ([2]; Group 5 (1.0 mg/kg/day) oral fed, 504 hours after initial dose): 3016.25 ng/mL
- Mivorilaner Concentration ([2]; Group 5 (1.0 mg/kg/day) oral fed, 720 hours after initial dose): 3756.25 ng/mL
- Mivorilaner Concentration ([2]; Group 5 (1.0 mg/kg/day) oral fed, 888 hours after initial dose): 3861.25 ng/mL
- Mivorilaner Concentration ([2]; Group 5 (1.0 mg/kg/day) oral fed, 1056 hours after initial dose): 4263.75 ng/mL
- Mivorilaner Concentration ([2]; Group 5 (1.0 mg/kg/day) oral fed, 1224 hours after initial dose): 4838.75 ng/mL
- Mivorilaner Concentration ([2]; Group 5 (1.0 mg/kg/day) oral fed, 1440 hours after initial dose): 4142.50 ng/mL
